The test concerns green peach aphid (Myzus persicae). The experiment in a line: Myzus test (MYZUPE spray treatment). The class given is in vivo. The settings on record: after 5 days; application rate 500 g/ha; spray on Chinese cabbage discs; 100% = all aphids killed. Here is the method:
Myzus Test (MYZUPE Spray Treatment) Solvent: 78 parts by weight of acetone and 1.5 parts by weight of dimethylformamide Emulsifier: 0.5 part by weight of alkylaryl polyglycol ether To prepare an active ingredient formulation, 1 part by weight of active ingredient is mixed with the specified amounts of solvent and emulsifier, and the concentrate is diluted to the desired concentration with emulsifier-containing water. Discs of Chinese cabbage (Brassica pekinensis) infested with all stages of the green peach aphid (Myzus persicae) are sprayed with an active ingredient formulation of the desired concentration. After the desired time, the efficacy in % is determined. 100% means that all aphids have been killed; 0% means that no aphids have been killed.

For `CC(=O)OCC(=CC(=O)OC(C)C)N(C)Cc1ccc(Cl)nc1` [Compound 1], the efficacy in % is given as 80%.

The values are drawn from US8343893B2, “Substituted enaminocarbonyl compounds” (Bayer Cropscience AG, priority 2009, dated 2013).
